The kinase profiling compilation of Christmann-Franck et al. (2016)

Tests used:
Assay in all cases: radiometric filter-binding kinase assay, Kinase HotSpot
Conditions in all cases: compound 0.5 µM; ATP 10 µM
MAP3K3 (human) = MAP3K3 (human) (UniProt Q99759)
CSNK1G1 (human) = CSNK1G1 (human) (UniProt Q9HCP0)
ACVRL1 (human) = ACVRL1 (human) (UniProt P37023)
RPS6KA5 KD2 (human) = RPS6KA5 KD2 (human) (UniProt O75582)
ALK (human) = ALK (human) (UniProt Q9UM73)
PIM1 (human) = PIM1 (human) (UniProt P11309)
Chain of PIM1 (human) (P11309 whole entry, looked up): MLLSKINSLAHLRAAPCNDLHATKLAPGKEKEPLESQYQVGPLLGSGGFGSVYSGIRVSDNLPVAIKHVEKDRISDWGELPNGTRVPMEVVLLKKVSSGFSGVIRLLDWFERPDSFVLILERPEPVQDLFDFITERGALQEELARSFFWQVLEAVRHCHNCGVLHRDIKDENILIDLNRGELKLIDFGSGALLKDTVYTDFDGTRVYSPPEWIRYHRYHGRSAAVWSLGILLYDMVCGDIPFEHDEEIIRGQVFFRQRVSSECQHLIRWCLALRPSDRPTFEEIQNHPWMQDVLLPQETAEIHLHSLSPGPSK

PRKCB1 (human) = PRKCB1 (human) (UniProt P05771)
CDC42BPB (human) = CDC42BPB (human) (UniProt Q9Y5S2)
TXK (human) = TXK (human) (UniProt P42681)
Chain of TXK (human) (P42681 whole entry, looked up): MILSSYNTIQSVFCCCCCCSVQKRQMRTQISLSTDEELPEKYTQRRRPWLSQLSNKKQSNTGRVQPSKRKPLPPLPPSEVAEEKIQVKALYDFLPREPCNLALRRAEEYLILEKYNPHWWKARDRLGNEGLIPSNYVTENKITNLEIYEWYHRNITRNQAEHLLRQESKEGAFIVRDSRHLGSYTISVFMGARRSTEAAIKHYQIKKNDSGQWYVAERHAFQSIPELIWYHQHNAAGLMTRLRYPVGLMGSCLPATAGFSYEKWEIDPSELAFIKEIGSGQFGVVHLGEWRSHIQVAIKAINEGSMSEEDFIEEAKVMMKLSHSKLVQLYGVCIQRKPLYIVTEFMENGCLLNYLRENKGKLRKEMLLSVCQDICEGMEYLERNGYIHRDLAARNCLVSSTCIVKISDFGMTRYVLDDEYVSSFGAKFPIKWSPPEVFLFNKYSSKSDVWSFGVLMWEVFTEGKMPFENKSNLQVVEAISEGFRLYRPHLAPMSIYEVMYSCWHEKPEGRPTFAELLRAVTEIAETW

MAP4K5 (human) = MAP4K5 (human) (UniProt Q9Y4K4)
RPS6KA2 KD1 KD2 (human) = RPS6KA2 KD1 KD2 (human) (UniProt Q15349)
MAP3K8 (human) = MAP3K8 (human) (UniProt P41279)
DYRK1B (human) = DYRK1B (human) (UniProt Q9Y463)
PRKACG (human) = PRKACG (human) (UniProt P22612)
RPS6KA1 KD1 KD2 (human) = RPS6KA1 KD1 KD2 (human) (UniProt Q15418)
CAMK4 (human) = CAMK4 (human) (UniProt Q16566)
PHKG2 (human) = PHKG2 (human) (UniProt P15735)
PRKX (human) = PRKX (human) (UniProt P51817)
EPHA2 (human) = EPHA2 (human) (UniProt P29317)
SGK2 (human) = SGK2 (human) (UniProt Q9HBY8)
WNK3 (human) = WNK3 (human) (UniProt Q9BYP7)
Chain of WNK3 (human) (Q9BYP7 whole entry, looked up): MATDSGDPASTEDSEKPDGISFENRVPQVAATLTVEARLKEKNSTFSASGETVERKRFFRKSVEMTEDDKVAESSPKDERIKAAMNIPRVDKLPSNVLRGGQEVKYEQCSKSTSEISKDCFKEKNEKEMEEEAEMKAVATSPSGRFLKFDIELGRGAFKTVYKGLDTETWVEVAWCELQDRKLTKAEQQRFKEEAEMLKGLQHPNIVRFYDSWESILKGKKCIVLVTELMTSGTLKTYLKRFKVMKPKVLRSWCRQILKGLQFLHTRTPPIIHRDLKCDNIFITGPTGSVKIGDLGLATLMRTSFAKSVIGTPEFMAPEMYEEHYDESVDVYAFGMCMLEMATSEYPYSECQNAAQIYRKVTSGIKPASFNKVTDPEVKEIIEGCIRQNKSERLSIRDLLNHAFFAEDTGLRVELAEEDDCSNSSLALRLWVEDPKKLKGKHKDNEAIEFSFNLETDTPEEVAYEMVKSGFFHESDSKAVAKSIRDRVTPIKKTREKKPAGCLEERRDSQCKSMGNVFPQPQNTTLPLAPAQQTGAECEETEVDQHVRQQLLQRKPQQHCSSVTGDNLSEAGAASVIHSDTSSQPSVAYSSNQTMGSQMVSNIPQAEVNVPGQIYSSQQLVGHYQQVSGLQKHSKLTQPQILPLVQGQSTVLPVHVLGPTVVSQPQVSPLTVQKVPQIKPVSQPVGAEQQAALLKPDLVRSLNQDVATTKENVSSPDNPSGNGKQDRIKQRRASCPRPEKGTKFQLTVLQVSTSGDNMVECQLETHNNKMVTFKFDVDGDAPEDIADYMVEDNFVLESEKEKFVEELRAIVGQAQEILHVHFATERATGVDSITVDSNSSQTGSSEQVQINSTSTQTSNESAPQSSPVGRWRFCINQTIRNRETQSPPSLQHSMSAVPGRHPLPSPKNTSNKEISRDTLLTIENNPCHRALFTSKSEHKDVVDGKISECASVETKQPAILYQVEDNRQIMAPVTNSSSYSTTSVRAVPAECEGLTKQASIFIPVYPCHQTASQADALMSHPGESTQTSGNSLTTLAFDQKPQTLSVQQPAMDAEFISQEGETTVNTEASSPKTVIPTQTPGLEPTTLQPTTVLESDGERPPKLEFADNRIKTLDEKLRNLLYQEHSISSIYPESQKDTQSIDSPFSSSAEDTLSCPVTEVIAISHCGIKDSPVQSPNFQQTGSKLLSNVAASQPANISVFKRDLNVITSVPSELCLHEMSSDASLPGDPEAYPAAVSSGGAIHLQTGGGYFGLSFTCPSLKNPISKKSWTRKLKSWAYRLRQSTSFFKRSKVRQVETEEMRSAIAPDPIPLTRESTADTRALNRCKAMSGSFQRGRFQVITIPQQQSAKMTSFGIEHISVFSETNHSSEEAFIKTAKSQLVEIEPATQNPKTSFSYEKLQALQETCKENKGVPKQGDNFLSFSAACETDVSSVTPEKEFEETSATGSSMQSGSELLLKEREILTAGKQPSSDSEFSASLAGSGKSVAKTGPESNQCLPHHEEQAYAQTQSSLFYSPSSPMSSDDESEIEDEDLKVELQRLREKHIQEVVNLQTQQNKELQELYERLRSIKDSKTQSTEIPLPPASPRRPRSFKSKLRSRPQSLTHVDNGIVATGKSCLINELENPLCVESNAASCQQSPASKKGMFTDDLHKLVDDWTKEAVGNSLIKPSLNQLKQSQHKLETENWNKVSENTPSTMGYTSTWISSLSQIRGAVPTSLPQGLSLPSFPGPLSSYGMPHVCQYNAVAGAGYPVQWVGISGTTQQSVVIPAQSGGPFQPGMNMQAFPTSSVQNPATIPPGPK

CAMK1 (human) = CAMK1 (human) (UniProt Q14012)
Chain of CAMK1 (human) (Q14012 whole entry, looked up): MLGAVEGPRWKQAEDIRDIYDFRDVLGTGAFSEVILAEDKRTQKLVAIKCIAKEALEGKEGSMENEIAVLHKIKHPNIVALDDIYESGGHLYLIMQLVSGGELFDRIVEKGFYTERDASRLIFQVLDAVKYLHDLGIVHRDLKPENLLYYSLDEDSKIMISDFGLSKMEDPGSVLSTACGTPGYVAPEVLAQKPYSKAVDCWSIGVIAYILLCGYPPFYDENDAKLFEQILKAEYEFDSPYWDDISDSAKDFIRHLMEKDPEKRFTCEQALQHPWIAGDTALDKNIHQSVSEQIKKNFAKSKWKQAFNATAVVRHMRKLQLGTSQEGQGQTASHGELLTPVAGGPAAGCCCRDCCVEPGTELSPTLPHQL

FGFR4 (human) = FGFR4 (human) (UniProt P22455)
AKT1 (human) = AKT1 (human) (UniProt P31749)
PAK2 (human) = PAK2 (human) (UniProt Q13177)
STK17A (human) = STK17A (human) (UniProt Q9UEE5)
Chain of STK17A (human) (Q9UEE5 whole entry, looked up): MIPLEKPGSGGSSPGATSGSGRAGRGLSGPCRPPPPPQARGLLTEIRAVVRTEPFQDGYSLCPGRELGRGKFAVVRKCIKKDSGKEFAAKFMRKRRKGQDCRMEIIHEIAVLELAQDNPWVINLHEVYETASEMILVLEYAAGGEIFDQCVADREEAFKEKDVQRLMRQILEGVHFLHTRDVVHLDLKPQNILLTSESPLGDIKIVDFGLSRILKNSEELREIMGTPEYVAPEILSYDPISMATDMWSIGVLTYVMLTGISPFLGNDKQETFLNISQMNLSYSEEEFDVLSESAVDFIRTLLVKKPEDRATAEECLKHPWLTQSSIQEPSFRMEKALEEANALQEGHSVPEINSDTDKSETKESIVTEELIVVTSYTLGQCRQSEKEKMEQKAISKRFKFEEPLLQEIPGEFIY

HIPK4 (human) = HIPK4 (human) (UniProt Q8NE63)
EPHA4 (human) = EPHA4 (human) (UniProt P54764)
CSNK2A1 (human) = CSNK2A1 (human) (UniProt P68400)
NLK (human) = NLK (human) (UniProt Q9UBE8)
TNK2 (human) = TNK2 (human) (UniProt Q07912)
MAPK11 (human) = MAPK11 (human) (UniProt Q15759)
DYRK3 (human) = DYRK3 (human) (UniProt O43781)
Chain of DYRK3 (human) (O43781 whole entry, looked up): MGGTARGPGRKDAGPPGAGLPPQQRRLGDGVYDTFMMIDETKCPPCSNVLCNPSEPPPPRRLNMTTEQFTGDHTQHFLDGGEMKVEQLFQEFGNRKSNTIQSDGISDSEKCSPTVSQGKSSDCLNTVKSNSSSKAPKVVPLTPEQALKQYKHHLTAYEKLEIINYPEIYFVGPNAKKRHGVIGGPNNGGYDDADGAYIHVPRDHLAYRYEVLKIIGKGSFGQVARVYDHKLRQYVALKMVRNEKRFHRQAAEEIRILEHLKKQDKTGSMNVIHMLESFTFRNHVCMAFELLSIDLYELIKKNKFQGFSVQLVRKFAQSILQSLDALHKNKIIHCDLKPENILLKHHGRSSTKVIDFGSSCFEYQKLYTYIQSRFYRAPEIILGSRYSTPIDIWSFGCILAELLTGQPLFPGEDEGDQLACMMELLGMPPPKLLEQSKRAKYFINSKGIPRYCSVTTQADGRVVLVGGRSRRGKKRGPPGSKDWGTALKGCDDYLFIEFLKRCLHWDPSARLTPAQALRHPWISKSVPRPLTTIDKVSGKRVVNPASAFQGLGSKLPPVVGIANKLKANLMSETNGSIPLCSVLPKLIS

MAPK12 (human) = MAPK12 (human) (UniProt P53778)
PRKD1 (human) = PRKD1 (human) (UniProt Q15139)
ULK2 (human) = ULK2 (human) (UniProt Q8IYT8)
Chain of ULK2 (human) (Q8IYT8 whole entry, looked up): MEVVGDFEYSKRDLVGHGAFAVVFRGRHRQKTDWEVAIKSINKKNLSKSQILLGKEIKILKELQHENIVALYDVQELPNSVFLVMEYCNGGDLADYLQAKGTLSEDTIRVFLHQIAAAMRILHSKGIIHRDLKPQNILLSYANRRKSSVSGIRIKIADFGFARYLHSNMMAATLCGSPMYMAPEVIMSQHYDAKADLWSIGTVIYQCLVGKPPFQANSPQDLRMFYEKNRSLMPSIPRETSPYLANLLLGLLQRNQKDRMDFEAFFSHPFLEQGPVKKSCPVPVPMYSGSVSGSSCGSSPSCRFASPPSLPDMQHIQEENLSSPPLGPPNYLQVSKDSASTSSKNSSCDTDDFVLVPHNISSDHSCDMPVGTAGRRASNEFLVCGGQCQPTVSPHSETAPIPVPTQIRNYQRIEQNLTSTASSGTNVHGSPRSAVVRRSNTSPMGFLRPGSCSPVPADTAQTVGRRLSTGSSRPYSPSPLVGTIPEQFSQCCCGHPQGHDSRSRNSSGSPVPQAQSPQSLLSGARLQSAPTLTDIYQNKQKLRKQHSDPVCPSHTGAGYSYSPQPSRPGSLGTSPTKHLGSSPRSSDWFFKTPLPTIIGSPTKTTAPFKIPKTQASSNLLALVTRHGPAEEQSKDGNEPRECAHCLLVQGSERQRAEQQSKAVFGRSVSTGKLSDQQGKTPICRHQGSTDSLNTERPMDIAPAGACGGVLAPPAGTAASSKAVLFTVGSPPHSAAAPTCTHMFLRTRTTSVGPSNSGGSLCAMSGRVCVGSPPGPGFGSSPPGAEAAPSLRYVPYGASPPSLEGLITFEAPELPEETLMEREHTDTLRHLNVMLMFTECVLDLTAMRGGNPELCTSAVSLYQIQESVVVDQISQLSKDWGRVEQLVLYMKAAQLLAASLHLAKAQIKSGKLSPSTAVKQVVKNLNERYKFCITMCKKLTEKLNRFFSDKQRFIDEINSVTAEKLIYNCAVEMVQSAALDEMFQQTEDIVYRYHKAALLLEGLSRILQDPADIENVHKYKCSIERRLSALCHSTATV

CDK2 CCNA2 (human) = CDK2 CCNA2 (human) (UniProt P24941+P20248)
CHEK2 (human) = CHEK2 (human) (UniProt O96017)
[1] = target: JAK1 JH1 catalytic (human) (UniProt P23458)
MET (human) = MET (human) (UniProt P08581)
DCLK2 (human) = DCLK2 (human) (UniProt Q8N568)
TEK (human) = TEK (human) (UniProt Q02763)

CCOC(=O)c1c(C)[nH]c(/C=C2\C(=O)Nc3ccccc32)c1C
residual activity (MAP3K3 (human)): 92.8%
residual activity (CSNK1G1 (human)): 103%
residual activity (ACVRL1 (human)): 94.8%
residual activity (RPS6KA5 KD2 (human)): 91.8%
residual activity (ALK (human)): 79.2%
residual activity (PIM1 (human)): 95.8%
residual activity (PRKCB1 (human)): 103%
residual activity (CDC42BPB (human)): 110%
residual activity (TXK (human)): 96.1%
residual activity (MAP4K5 (human)): 84.3%
residual activity (RPS6KA2 KD1 KD2 (human)): 71.4%
residual activity (MAP3K8 (human)): 108%
residual activity (DYRK1B (human)): 105%
residual activity (PRKACG (human)): 88.4%
residual activity (RPS6KA1 KD1 KD2 (human)): 77.6%
residual activity (CAMK4 (human)): 97.7%
residual activity (PHKG2 (human)): 96.2%
residual activity (PRKX (human)): 94.8%
residual activity (EPHA2 (human)): 105%
residual activity (SGK2 (human)): 93.7%
residual activity (WNK3 (human)): 104%
residual activity (CAMK1 (human)): 98.1%
residual activity (FGFR4 (human)): 82.4%
residual activity (AKT1 (human)): 96.1%
residual activity (PAK2 (human)): 92.5%
residual activity (STK17A (human)): 81.4%
residual activity (HIPK4 (human)): 90.2%
residual activity (EPHA4 (human)): 80.3%
residual activity (CSNK2A1 (human)): 114%
residual activity (NLK (human)): 94.8%
residual activity (TNK2 (human)): 92.7%
residual activity (MAPK11 (human)): 97.5%
residual activity (DYRK3 (human)): 102%
residual activity (MAPK12 (human)): 101%
residual activity (PRKD1 (human)): 91.3%
residual activity (ULK2 (human)): 105%
residual activity (CDK2 CCNA2 (human)): 94.5%
residual activity (CHEK2 (human)): 70.5%
residual activity [1]: 97.1%
residual activity (MET (human)): 87.4%
residual activity (DCLK2 (human)): 94.7%

COc1cc2ncnc(Nc3cccc(Cl)c3)c2cc1OC
residual activity (MAP3K3 (human)): 88.3%
residual activity (CSNK1G1 (human)): 99.9%
residual activity (ACVRL1 (human)): 96.4%
residual activity (RPS6KA5 KD2 (human)): 97.8%
residual activity (ALK (human)): 91.5%
residual activity (PIM1 (human)): 91.5%
residual activity (PRKCB1 (human)): 103%
residual activity (TEK (human)): 88.6%
residual activity (CDC42BPB (human)): 84.9%
residual activity (TXK (human)): 75%
residual activity (MAP4K5 (human)): 59.5%
residual activity (RPS6KA2 KD1 KD2 (human)): 85.5%
residual activity (MAP3K8 (human)): 104%
residual activity (DYRK1B (human)): 104%
residual activity (PRKACG (human)): 87.9%
residual activity (RPS6KA1 KD1 KD2 (human)): 87.3%
residual activity (CAMK4 (human)): 94.4%
residual activity (PHKG2 (human)): 92.6%
residual activity (PRKX (human)): 92.5%
residual activity (EPHA2 (human)): 85.2%
residual activity (SGK2 (human)): 97.8%
residual activity (WNK3 (human)): 97.8%
residual activity (CAMK1 (human)): 99.2%
residual activity (FGFR4 (human)): 78.7%
residual activity (AKT1 (human)): 89.9%
residual activity (PAK2 (human)): 90.7%
residual activity (STK17A (human)): 95.4%
residual activity (HIPK4 (human)): 64.4%
residual activity (EPHA4 (human)): 81.7%
residual activity (NLK (human)): 83.1%
residual activity (TNK2 (human)): 28.6%
residual activity (MAPK11 (human)): 97.5%
residual activity (DYRK3 (human)): 96.3%
residual activity (MAPK12 (human)): 98.5%
residual activity (PRKD1 (human)): 92.3%
residual activity (ULK2 (human)): 103%
residual activity (CHEK2 (human)): 79.7%
residual activity [1]: 90.4%
residual activity (MET (human)): 75.5%
residual activity (DCLK2 (human)): 94.7%

CCN(CC)CCNC(=O)c1c(C)[nH]c(/C=C2\C(=O)Nc3ccc(F)cc32)c1C
residual activity (MAP3K3 (human)): 42%
residual activity (ACVRL1 (human)): 112%
residual activity (RPS6KA5 KD2 (human)): 60.1%
residual activity (ALK (human)): 16.6%
residual activity (PIM1 (human)): 94.4%
residual activity (PRKCB1 (human)): 90.2%
residual activity (TEK (human)): 88.6%
residual activity (CDC42BPB (human)): 101%
residual activity (TXK (human)): 92.6%
residual activity (MAP4K5 (human)): 4.06%
residual activity (RPS6KA2 KD1 KD2 (human)): 17.3%
residual activity (MAP3K8 (human)): 117%
residual activity (DYRK1B (human)): 60%
residual activity (PRKACG (human)): 109%
residual activity (RPS6KA1 KD1 KD2 (human)): 28%
residual activity (CAMK4 (human)): 88.6%
residual activity (PHKG2 (human)): 20.6%
residual activity (PRKX (human)): 105%
residual activity (EPHA2 (human)): 83.6%
residual activity (SGK2 (human)): 93.1%
residual activity (WNK3 (human)): 94.3%
residual activity (CAMK1 (human)): 75.2%
residual activity (FGFR4 (human)): 92.5%
residual activity (AKT1 (human)): 105%
residual activity (PAK2 (human)): 98.1%
residual activity (STK17A (human)): 26.7%
residual activity (HIPK4 (human)): 74.7%
residual activity (EPHA4 (human)): 84.5%
residual activity (CSNK2A1 (human)): 121%
residual activity (NLK (human)): 105%
residual activity (TNK2 (human)): 64.1%
residual activity (MAPK11 (human)): 99.9%
residual activity (DYRK3 (human)): 58.2%
residual activity (MAPK12 (human)): 95.8%
residual activity (PRKD1 (human)): 20%
residual activity (ULK2 (human)): 40.3%
residual activity (CHEK2 (human)): 7.13%
residual activity [1]: 71.9%
residual activity (MET (human)): 91%
residual activity (DCLK2 (human)): 85%
